Patent US11136561B2, “Polypeptide for the enzymatic detoxification of zearalenone, isolated polynucleotide, and associated additive, use and method” (priority 2014, dated 2021)

T1: fusion protein containing the hormone-dependent activation domain of the human estrogen receptor alpha and the DNA binding domain of the yeast Gal4 protein (Homo sapiens, UniProt P03372)
T1 construct: expressed in transfected cells; host or cells: Saccharomyces cerevisiae YZHB817 (PJ69-4a derivative, pdr5 snq2) carrying expression vector pTK103
T1 sequence (P03372 311-595 limits assumed): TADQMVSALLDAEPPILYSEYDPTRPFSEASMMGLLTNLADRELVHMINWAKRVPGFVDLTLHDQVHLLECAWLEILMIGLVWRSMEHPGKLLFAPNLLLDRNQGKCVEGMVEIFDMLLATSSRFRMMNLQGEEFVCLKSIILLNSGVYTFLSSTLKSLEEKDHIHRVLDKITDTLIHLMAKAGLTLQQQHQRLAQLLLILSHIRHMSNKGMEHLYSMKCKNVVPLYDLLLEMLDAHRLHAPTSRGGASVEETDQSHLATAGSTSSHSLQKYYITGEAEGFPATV

B1: polypeptide of SEQ ID No. 1: monooxygenase converting the keto group in position 7 of zearalenone into an ester group (protein)
chain: MTLEAIPVPEETPAQTVPTAPLSEEEREALKHRYRAERDKRIREDGIKQYRSLEGLLDVDDTKDPYTPVKPREPLNDHVDFLFLGGGFAGLIVCSHLKKTGFNDFRIIESGGDFGGVWYWNRFPGAMCDTAAMVYLPLLEETGTVPSAKYVRGPEILAHAQRIARTFDLYPHALFHTHLESLTWDEEQGVWKVKTRQGDSFTATHVGMGTGPLNKPHLPGIPGIEKFKGKAMHTARWDFATTGGGWNGEVMEGLKDKRVGVIGTGATGIQAIPELGRDSGELFVFQRTPSAVAVRGNHPIDPEWFASLDKGWQTKWNRNFIQLMSSGMAENDYVRDGWTDGVKRITARMFAEAAKAGRDPSTLSFDDFLAAYHLSDDEYMTAVRNRTNEVVNDPKTADGLKAWYRQFCKRPCFHDEFLATFNRPTVHLVDTNGQGVTEVDETGVWANGQHYDLDIIVYATGFEFNSEWTYKSGMEVYGRDGLTLTQAWKDGMKTYHGMHINGFPNLFMLQFQQGSSLASNITSNYVDSGYTIAAILNKKKELGAKTVEVPADVQSKWIEHLLTANKGLIGGPECTPGYYNNEGQEEGLKEKLNGARYPAGSLAFFDYIAEWRTNGKFEGLAFDGKQIAVQ
modifications: Trichosporon mycotoxinivorans
notes: monooxygenase converting the keto group in position 7 of zearalenone into an ester group

Key:
[1] = molecular target: T1, fusion protein containing the hormone-dependent activation domain of the human estrogen receptor alpha and the DNA binding domain of the yeast Gal4 protein; type: cell-based; settings: for Concentration necessary to express 7.5 relative units of beta-galactosidase: GAL7-lacZ reporter, 18 hours at 30° C.
Excerpt: The purified metabolite iZOM as described in Example 2 was used to determine its toxicity, expressed by its estrogenic activity, and compared to that of zearalenone.
For measuring the estrogenic activity, a specially prepared reporter yeast strain, YZHB817 (Bachmann, H.: Phenotypic detection of zearalenone in Saccharomyces cerevisiae. Master thesis BOKU Vienna, 2003) was used. This strain is derived from yeast-two hybrid strain PJ69-4a (MATa trp1-901 leu2-3,112 ura3-52 his3-200 gal4-(deleted) gal80(deleted) LYS2::GAL1-HIS3 GAL2-ADE2 met2::GAL7-lacZ) (James et al. 1996, Genetics; 144(4), 1425-1436). PJ69-4a was further developed by the disruption of the ABC transporters PDR5 and SNQ2. […] This strain was subsequently transformed with an expression vector (pTK103) that triggers the production of a fusion protein containing the hormone-dependent activation domain of the human estrogen receptor alpha and the DNA binding domain of the yeast Gal4 protein, in order to obtain the strain YZHB817.
In the presence of estrogenic substances, the yeast strain YZHB817 induces the expression of the GAL7 lacZ reporter gene, whose product, the enzyme beta-galactosidase, is easy to measure by the hydrolyzation of the chromogenic substrate ONPG (ortho-nitrophenyl-beta-galactoside) at 420 nm (Current Protocols in Molecular Biology, Chapter 13, Yeast (Eds. Lundblad V, Struhl, K.)).
[…] of the estrogenic test solution (ZEN or iZOM) were dissolved in 50% ethanol, mixed with 1.9 ml of the yeast culture of strain […] in SC-TRP medium at a cell density of OD600=0.1, and incubated for 18 hours at 30° C. and 180 rpm. After this, the OD600 of the culture was determined, and the cell pellet (10 min, 13 krpm) of 1 ml was resuspended in […] Z buffer and permeabilized with 25 μl chloroform. […] The supernatant was measured at 420 nm, and the relative units (based on the used cell amount) were calculated as: RU=(OD420×1000)/(OD600×incubation time in min)

[2] = cited from earlier work
mammals = settings: cited from earlier work
[3] = extrusion and oxidants, e.g. 16 hours at 80° C. with 10% hydrogen peroxide solution; cited from earlier work
bovine = settings: cited from earlier work
pigs = settings: cited from earlier work
[4] = cited from earlier work; remark: listed apart in the source
[5] = test system: polypeptide of SEQ ID No. 1; test: Metabolization of ZEN by yeast strain YZGA515 expressing the polypeptide of SEQ ID No. 1 (test setup), HPLC-MS; type: cell-based, Saccharomyces cerevisiae; settings: expressed in yeast strain YZGA515
Excerpt: The yeast strain YZGA515 (Saccharomyces cerevisiae modified by inactivation of the ABC transporter gene PDR5 (Poppenberger et al. 2003, J. Biol. Chem., 278 (48) 47905-14) for the enhanced absorption of zearalenone (ZEN)) was transformed by the plasmid pCS57 using standard techniques. pCS57 is a plasmid derived from the yeast expression plasmid pADH-FW (Mitterbauer et. al 2002, Appl. Environ. Microbiol.; 68 (3), 1336-1346) with LEU2 as selection marker and ADH1 promoter.
In the test setup, the yeast strain YZGA515 was transformed with the pCS57 vector additionally containing the polynucleotide of SEQ ID No. 4 as BamHI-Xhol fragment after the strongly constitutive ADH1 promoter (alcohol dehydrogenase 1). This enabled the formation of the polypeptide of SEQ ID No. 1.
The yeast strain YZGA515 with the empty vector (pADH-FW without the polynucleotide of SEQ ID No.4) was transformed as negative control.
The transgenic yeasts (test setup and negative control) were cultivated in SC-LEU medium (Sherman 1991, Methods Enzymol., 194, 3-21), centrifuged and resuspended in fresh SC-LEU medium at a concentration of 2 mg/l ZEN, wherein a cell density of OD600=4 was adjusted in both cases. […]
In a further test setup, the metabolite iZOM was additionally measured quantitatively. […]

| Molecule | Concentration necessary to express 7.5 relative units of beta-galactosidase [1] | Time after oral administration at which ZEN is detectable in blood [2] | ZEN concentration in feeds leading to development disorders (mammals) | Reduction of ZEN content [3] | ZEN concentration made responsible for miscarriages (bovine) | ZEN concentration in feeds that may lead to hyper-estrogenicity (pigs) | oral LD50 [4] | Toxicity lower by a factor (than zearalenone) ([1]; toxicity expressed by estrogenic activity) | Conversion of ZEN to iZOM [5] |
| --- | --- | --- | --- | --- | --- | --- | --- | --- | --- |
| C[C@H]1CCCC(=O)CCC/C=C/c2cc(O)cc(O)c2C(=O)O1 [ZEN, (2E,11D)-15,17-dihydroxy-11-methyl-12-oxabicyco[12.4.0]octadeca-1(18), 2,14,16-tetraene-7,13-dione] | approximately 45 ppb | 30 min | above 0.5 ppm | 83.9% | 12 ppm | above 1.5 ppm | up to 20,000 mg/kg body weight | – | – |
| CC1CCCC(=O)OCCC/C=C/c2cc(O)cc(O)c2C(=O)O1 (stereo not shown) [iZOM] | about 500 ppb | – | – | – | – | – | – | about 100 | – |
| B1 | – | – | – | – | – | – | – | – | able to convert ZEN to its metabolite iZOM |
